Assay results reported in PubChem BioAssay (NCI).
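Where inhibition never reached the appropriate level, the endpoint shown equals the highest concentration tested. Otherwise, values were interpolated linearly from a five-concentration, 48-hour dose response in 96-well plates. Definition used: TGI = concentration required for complete inhibition of growth.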

Key:
Experiment in all cases: NCI-60 cell line screen, 48 h
[1] = system: UO-31 renal
[2] = system: OVCAR-3 ovarian
[3] = system: SF-539 CNS
[4] = system: DLD-1 colon
[5] = system: NCI-H522 lung
[6] = system: SW-620 colon
[7] = system: HCT-116 colon
[8] = system: OVCAR-8 ovarian
[9] = system: DMS 114 small cell lung
[10] = system: ACHN renal
[11] = system: EKVX NSCLC
[12] = system: SK-MEL-2 melanoma
[13] = system: SNB-75 CNS
[14] = system: SNB-78 CNS
[15] = system: CCRF-CEM leukemia
[16] = system: U251 CNS
[17] = system: NCI-H460 lung
[18] = system: IGROV1 ovarian
[19] = system: TK-10 renal
[20] = system: SK-OV-3 ovarian
[21] = system: M14 melanoma
[22] = system: KM12 colon
[23] = system: A549 NSCLC
[24] = system: NCI-H226 lung
[25] = system: HL-60(TB) leukemia
[26] = system: LOX IMVI melanoma
[27] = system: OVCAR-4 ovarian
[28] = system: 786-0 renal
[29] = system: RXF 393 renal
[30] = system: HOP-62 NSCLC
[31] = system: COLO 205 colon
[32] = system: MOLT-4 leukemia
[33] = system: K-562 leukemia
[34] = system: NCI-H23 lung
[35] = system: HCT-15 colon
[36] = system: MALME-3M melanoma
[37] = system: SK-MEL-28 melanoma
[38] = system: RPMI-8226 leukemia
[39] = system: CAKI-1 renal
[40] = system: SF-268 CNS
[41] = system: OVCAR-5 ovarian
[42] = system: HT29 colon
[43] = system: HOP-92 NSCLC
[44] = system: SR leukemia
[45] = system: SF-295 CNS
[46] = system: LXFL 529 NSCLC
[47] = system: SN12C renal
[48] = system: M19-MEL melanoma
[49] = system: SNB-19 CNS
[50] = system: XF 498 CNS
[51] = system: SK-MEL-5 melanoma
[52] = system: HS 578T breast
[53] = system: MCF7 breast
[54] = system: MDA-N
[55] = system: BT-549 breast
[56] = system: T-47D breast
[57] = system: UACC-62 melanoma
[58] = system: HCC-2998 colon
[59] = system: DU-145 prostate
[60] = system: PC-3 prostate
[61] = system: NCI/ADR-RES ovarian
[62] = system: UACC-257 melanoma
[63] = system: MDA-MB-435
[64] = system: A498 renal
[65] = system: MDA-MB-231 breast

In the case of `Fc1ccc(C2SCc3nc4ccccc4n32)cc1` (centres undefined), the TGI [1] is reported as 70.1 µM, the TGI [2] is reported as 77.6 µM and the TGI [3] is reported as > 100 µM. The TGI [4] was > 100 µM, the TGI [5] was 70.9 µM and the TGI [6] was > 100 µM. For the same compound, the TGI [7] was > 100 µM, the TGI [8] was > 100 µM and the TGI [9] was > 100 µM. The TGI [10] was > 100 µM, the TGI [11] was > 100 µM and the TGI [12] was > 100 µM. For the same compound, the TGI [13] was 9.55 µM, the TGI [14] was > 100 µM and the TGI [15] was > 100 µM. For the same compound, the TGI [16] was > 100 µM, the TGI [17] was > 100 µM and the TGI [18] was > 100 µM. For the same compound, the TGI [19] was 72 µM, the TGI [20] was > 100 µM and the TGI [21] was > 100 µM. The TGI [22] was > 100 µM, the TGI [23] was > 100 µM and the TGI [24] was 92.4 µM. The TGI [25] was 71.8 µM, the TGI [26] was > 100 µM and the TGI [27] was > 100 µM. The TGI [28] was > 100 µM, the TGI [29] was 70.7 µM and the TGI [30] was > 100 µM. The TGI [31] was > 100 µM, the TGI [32] was > 100 µM and the TGI [33] was > 100 µM. For the same compound, the TGI [34] was > 100 µM, the TGI [35] was > 100 µM and the TGI [36] was 73.1 µM. For the same compound, the TGI [37] was 76.5 µM, the TGI [38] was > 100 µM and the TGI [39] was > 100 µM. For the same compound, the TGI [40] was > 100 µM, the TGI [41] was 99.4 µM and the TGI [42] was > 100 µM. For the same compound, the TGI [43] was 62 µM, the TGI [44] was 96.6 µM and the TGI [45] was > 100 µM. The TGI [46] was > 100 µM, the TGI [47] was > 100 µM and the TGI [48] was > 100 µM. The TGI [49] was 9.64 µM, the TGI [50] was > 100 µM and the TGI [51] was 38 µM.

With `C(=C\c1ccccc1)/C=N/c1nc2cc3sc(/N=C/C=C/c4ccccc4)nc3cc2s1` the TGI [1] was > 100 µM, the TGI [52] was > 100 µM and the TGI [53] was > 100 µM. For the same compound, the TGI [2] was > 100 µM, the TGI [3] was > 100 µM and the TGI [5] was > 100 µM. For the same compound, the TGI [54] was > 100 µM, the TGI [6] was > 100 µM and the TGI [7] was > 100 µM. For the same compound, the TGI [55] was > 100 µM, the TGI [8] was > 100 µM and the TGI [56] was > 100 µM. The TGI [10] was > 100 µM, the TGI [11] was > 100 µM and the TGI [12] was > 100 µM. For the same compound, the TGI [13] was > 100 µM, the TGI [57] was > 100 µM and the TGI [15] was > 100 µM. The TGI [16] was > 100 µM, the TGI [17] was > 100 µM and the TGI [18] was > 100 µM. The TGI [19] was > 100 µM, the TGI [20] was > 100 µM and the TGI [21] was > 100 µM. For the same compound, the TGI [22] was > 100 µM, the TGI [23] was > 100 µM and the TGI [25] was > 100 µM. For the same compound, the TGI [26] was > 100 µM, the TGI [27] was > 100 µM and the TGI [28] was > 100 µM. For the same compound, the TGI [58] was > 100 µM, the TGI [29] was > 100 µM and the TGI [30] was > 100 µM. For the same compound, the TGI [31] was > 25.8 µM, the TGI [32] was > 76.1 µM and the TGI [33] was > 100 µM. For the same compound, the TGI [34] was > 100 µM, the TGI [59] was > 100 µM and the TGI [35] was > 100 µM. The TGI [60] was > 100 µM, the TGI [61] was > 100 µM and the TGI [62] was > 100 µM. The TGI [63] was > 100 µM, the TGI [36] was > 100 µM and the TGI [37] was > 100 µM. For the same compound, the TGI [38] was > 100 µM, the TGI [39] was > 100 µM and the TGI [40] was > 100 µM. The TGI [64] was > 100 µM, the TGI [65] was > 100 µM and the TGI [41] was > 100 µM. The TGI [42] was > 100 µM, the TGI [43] was > 100 µM and the TGI [44] was 32.4 µM. For the same compound, the TGI [45] was > 100 µM, the TGI [47] was > 100 µM and the TGI [49] was > 100 µM. For the same compound, the TGI [51] was > 100 µM.
